Assay results as given in ChEMBL document CHEMBL3259669, “The discovery and SAR of cyclopenta[b]furans as inhibitors of CCR2” (Bioorg Med Chem Lett, 2014).

Experiments:
[1] = Plasma concentration in guinea pig at 10 mg/kg; type: ADME, organism-based, Cavia porcellus; design: dose 10 mg/kg; conditions: in vivo
Plasma = assay: Plasma concentration in thioglycolate-induced peritoneal leukocyte infiltration in human CCR2 knock-in mouse model at 1 mg/kg, po; type: ADME, organism-based; design: dose 1 mg/kg, route oral; conditions: in vivo
[2] = buffer
[3] = human, microsomes
[4] = rat, microsomes
Rattus norvegicus = organism: Rattus norvegicus; conditions: in vivo, iv, 2 mg/kg
in vivo [5] = conditions: rat
in vivo [6] = conditions: rat, po, 10 mg/kg
in vivo [7] = conditions: rat, plasma
in vivo [8] = conditions: rat, iv, 2 mg/kg
in vivo [9] = conditions: rat, po, 10 mg/kg; remark: listed apart in the source

SMILES | concentration [1] [µM] | concentration (Plasma) [nM] | solubility [2] | Stability [3] | Stability [4] | CL (Rattus norvegicus) [mL/mg/kg] | half-life (in vivo [5]) [min] | Cmax (in vivo [6]) [ng/mL] | AUC(0-t) (in vivo [7]) [ng·h/mL] | Vd (in vivo [8]) [L/kg] | bioavailability (in vivo [9]) [%]
CO[C@@H]1COCC[C@@H]1N[C@@H]1C[C@H]2OCC[C@@]2(C(=O)N2CCc3ncc(C(F)(F)F)cc3C2)C1 | 23 | 97 | soluble | Stable | Stable | 15.6 | 228 | 2200 | 9760 | 3.2 | 94
CO[C@H]1COCC[C@H]1N[C@@H]1C[C@H]2OCC[C@@]2(C(=O)N2CCc3ncc(C(F)(F)F)cc3C2)C1 | 18 | 98 | soluble | Stable | Stable | 43.2 | 210 | 632 | 3540 | 5 | 91
